Patent US10233173B2, “Substituted 1,2,3-triazoles as NR2B-selective NMDA modulators” (JANSSEN PHARMACEUTICA NV, priority 2016, dated 2019)

Molecular target: human GluN1/GluN2B NMDA receptors (Homo sapiens, UniProt Q05586+Q13224)
Experiment: Cell-based calcium flux (FLIPR) assay on cloned human NR1/NR2B ion channels expressed in mammalian cells
Conditions: standard assay
Outline: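 Calcium influx followed by FLIPR fluorescence after 5 min compound exposure and a further 5 min co-agonist challenge: 10 μM glycine with glutamate at ~EC80 (standard) or EC40 (HTS).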

[1] = human GluN1/GluN2B, calcium flux (FLIPR), glutamate ~EC80
[2] = glutamate at ~EC80, FLIPR calcium flux

Chain of human GluN1/GluN2B NMDA receptors (Q13224 27-1484, other chains not shown): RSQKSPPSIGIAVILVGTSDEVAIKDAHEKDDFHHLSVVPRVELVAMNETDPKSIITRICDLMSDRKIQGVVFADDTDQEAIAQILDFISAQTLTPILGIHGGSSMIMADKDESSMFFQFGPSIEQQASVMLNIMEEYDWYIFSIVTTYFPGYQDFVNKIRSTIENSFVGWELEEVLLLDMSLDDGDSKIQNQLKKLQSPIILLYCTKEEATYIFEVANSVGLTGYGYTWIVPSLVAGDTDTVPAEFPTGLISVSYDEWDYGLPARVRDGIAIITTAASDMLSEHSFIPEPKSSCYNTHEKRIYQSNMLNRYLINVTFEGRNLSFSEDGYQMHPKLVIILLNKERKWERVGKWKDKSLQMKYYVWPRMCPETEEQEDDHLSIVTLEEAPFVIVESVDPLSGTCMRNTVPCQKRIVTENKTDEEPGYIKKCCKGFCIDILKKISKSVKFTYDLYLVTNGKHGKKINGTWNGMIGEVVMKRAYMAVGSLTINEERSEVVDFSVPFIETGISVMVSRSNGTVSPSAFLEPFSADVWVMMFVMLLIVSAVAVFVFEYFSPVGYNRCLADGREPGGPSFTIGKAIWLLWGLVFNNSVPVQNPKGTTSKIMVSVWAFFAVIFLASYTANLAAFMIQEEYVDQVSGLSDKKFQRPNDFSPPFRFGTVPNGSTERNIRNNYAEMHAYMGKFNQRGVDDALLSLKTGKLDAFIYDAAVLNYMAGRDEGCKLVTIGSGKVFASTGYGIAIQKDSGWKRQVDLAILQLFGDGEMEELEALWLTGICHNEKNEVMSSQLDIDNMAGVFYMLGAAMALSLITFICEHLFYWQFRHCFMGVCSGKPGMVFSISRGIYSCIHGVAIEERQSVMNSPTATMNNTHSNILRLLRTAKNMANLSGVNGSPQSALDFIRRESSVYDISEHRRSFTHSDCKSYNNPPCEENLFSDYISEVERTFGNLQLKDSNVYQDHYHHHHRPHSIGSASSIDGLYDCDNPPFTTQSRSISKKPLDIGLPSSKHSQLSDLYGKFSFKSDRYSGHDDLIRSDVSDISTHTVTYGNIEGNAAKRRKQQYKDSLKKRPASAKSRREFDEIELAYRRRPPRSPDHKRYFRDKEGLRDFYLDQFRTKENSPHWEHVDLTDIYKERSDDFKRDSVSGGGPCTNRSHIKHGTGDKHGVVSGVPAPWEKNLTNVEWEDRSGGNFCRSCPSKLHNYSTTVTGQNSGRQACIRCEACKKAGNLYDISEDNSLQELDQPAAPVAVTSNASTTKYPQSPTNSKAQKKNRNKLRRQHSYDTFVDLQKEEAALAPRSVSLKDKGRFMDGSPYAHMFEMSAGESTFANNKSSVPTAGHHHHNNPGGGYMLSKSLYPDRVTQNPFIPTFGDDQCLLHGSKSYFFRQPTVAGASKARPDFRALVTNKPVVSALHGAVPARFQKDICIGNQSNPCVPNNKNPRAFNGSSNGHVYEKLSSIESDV

Compound	IC50 [1] [µM]	IC50 [2] [µM]
FCCOc1cnc(OCc2cn(-c3ccc(Cl)c(OC(F)F)c3)nn2)nc1 [Example 192, 2-[[1-[4-Chloro-3-(difluoromethoxy)phenyl]triazol-4-yl]methoxy]-5-(2-fluoroethoxy)pyrimidine]	0.03	
Cc1cnc(OCc2cn(-c3ccccc3C)nn2)nc1 [Example 240, 5-Methyl-2-[[1-(o-tolyl)triazol-4-yl]methoxy]pyrimidine]	5.58	
COC(C)c1cnc(OCc2cn(-c3cccc(C(C)(F)F)c3)nn2)nc1 (racemic) [Example 311, (R/S)-2-[[1-[3-(1,1-Difluoroethyl)phenyl]triazol-4-yl]methoxy]-5-(1-methoxyethyl)pyrimidine]	1.58	
CNc1nc(OCc2cn(-c3ccc(F)c(C(C)(F)F)c3)nn2)ncc1C [Example 577, 2-[[1-[3-(1,1-Difluoroethyl)-4-fluoro-phenyl]triazol-4-yl]methoxy]-N,5-dimethyl-pyrimidin-4-amine]		0.128
Fc1ccc(-n2cc(COc3ccccn3)nn2)cc1C(F)F [Example 111, 2-[[1-[3-(Difluoromethyl)-4-fluoro-phenyl]triazol-4-yl]methoxy]pyridine]	0.684	
CC(F)(F)c1cc(-n2cc(COc3nccc(CO)n3)nn2)ccc1F [Example 568, [2-[[1-[3-(1,1-Difluoroethyl)-4-fluoro-phenyl]triazol-4-yl]methoxy]pyrimidin-4-yl]methanol]		0.025
CC(F)(F)c1cc(-n2cc(COc3ncc(-c4cn[nH]c4)cn3)nn2)ccc1F [Example 185, 2-[[1-[3-(1,1-Difluoroethyl)-4-fluoro-phenyl]triazol-4-yl]methoxy]-5-(1H-pyrazol-4-yl)pyrimidine]	0.166	
Fc1ccc(-n2cc(COc3ncc(F)c(NC4CC4)n3)nn2)cc1OC(F)F [Example 519, N-Cyclopropyl-2-((1-(3-(difluoromethoxy)-4-fluorophenyl)-1H-1,2,3-triazol-4-yl)methoxy)-5-fluoropyrimidin-4-amine]		0.204
CCc1cnc(OCc2cn(-c3ccc(OC(F)(F)F)cc3)nn2)nc1 [Example 340, 5-Ethyl-2-[[1-[4-(trifluoromethoxy)phenyl]triazol-4-yl]methoxy]pyrimidine]	0.794	
OCc1ccnc(OCc2cn(-c3ccc(F)c(C(F)F)c3)nn2)n1 [Example 400, [2-[[1-[3-(Difluoromethyl)-4-fluoro-phenyl]triazol-4-yl]methoxy]pyrimidin-4-yl]methanol]		0.036
Cc1cccc(OCc2cn(-c3ccc(F)c(OC(F)F)c3)nn2)n1 [Example 8, 2-[[1-[3-(Difluoromethoxy)-4-fluoro-phenyl]triazol-4-yl]methoxy]-6-methyl-pyridine]	0.022	
COc1cc(-n2cc(COc3ncccn3)nn2)ccc1Cl [Example 15, 2-[[1-(4-Chloro-3-methoxy-phenyl)triazol-4-yl]methoxy]pyrimidine]	0.699	
FC(F)Oc1cc(-n2cc(COc3nccc(Cl)n3)nn2)ccc1Cl [Example 190, 4-Chloro-2-[[1-[4-chloro-3-(difluoromethoxy)phenyl]triazol-4-yl]methoxy]pyrimidine]	0.026	
CN(C)c1ccnc(OCc2cn(-c3ccc(F)c(OC(F)F)c3)nn2)n1 [Example 505, 2-[[1-[3-(Difluoromethoxy)-4-fluoro-phenyl]triazol-4-yl]methoxy]-N,N-dimethyl-pyrimidin-4-amine]		0.007
COc1cnc(OCc2cn(-c3cccc(OC(F)F)c3)nn2)nc1 [Example 325, 2-[[1-[3-(Difluoromethoxy)phenyl]triazol-4-yl]methoxy]-5-methoxy-pyrimidine]	0.027	
Fc1ccc(-n2cc(COc3nccc(N4CCC(F)(F)C4)n3)nn2)cc1OC(F)F [Example 166, 2-[[1-[3-(Difluoromethoxy)-4-fluoro-phenyl]triazol-4-yl]methoxy]-4-(3,3-difluoropyrrolidin-1-yl)pyrimidine]	0.144	
Fc1ccc(-n2cc(COc3ncccn3)nn2)cc1C(F)(F)F [Example 82, 2-[[1-[4-Fluoro-3-(trifluoromethyl)phenyl]triazol-4-yl]methoxy]pyrimidine]	0.126	
Cc1cnc(OCc2cn(-c3cccc(C(F)F)c3)nn2)nc1 [Example 89, 2-[[1-[3-(Difluoromethyl)phenyl]triazol-4-yl]methoxy]-5-methyl-pyrimidine]	0.011	
FC(F)Oc1cccc(-n2cc(COc3ncc(Cl)cn3)nn2)c1 [Example 326, 5-Chloro-2-[[1-[3-(difluoromethoxy)phenyl]triazol-4-yl]methoxy]pyrimidine]	0.069	
CC(C)c1cccc(-n2cc(COc3ncccn3)nn2)c1 [Example 262, 2-[[1-(3-Isopropylphenyl)triazol-4-yl]methoxy]pyrimidine]	0.358	
Cc1nc(OCc2cn(-c3cccc(C(C)(F)F)c3)nn2)ncc1F [Example 313, 2-[[1-[3-(1,1-Difluoroethyl)phenyl]triazol-4-yl]methoxy]-5-fluoro-4-methyl-pyrimidine]	0.005	

Compound	IC50 [1] [µM]	IC50 [2] [µM]
FC(F)Oc1cc(-n2cc(COc3ccncn3)nn2)ccc1Cl [Example 13, 4-[[1-[4-Chloro-3-(difluoromethoxy)phenyl]triazol-4-yl]methoxy]pyrimidine]	0.879	
Nc1ccnc(OCc2cn(-c3ccc(F)c(OC(F)F)c3)nn2)n1 [Example 501, 2-[[1-[3-(Difluoromethoxy)-4-fluoro-phenyl]triazol-4-yl]methoxy]pyrimidin-4-amine]		0.052
Fc1ccc(-n2cc(COc3ccc(C(F)(F)F)cn3)nn2)cc1C(F)F [Example 65, 2-[[1-[3-(Difluoromethyl)-4-fluoro-phenyl]triazol-4-yl]methoxy]-5-(trifluoromethyl)pyridine]	0.056	
FC(F)Oc1cnc(OCc2cn(-c3ccc(Cl)c(OC(F)F)c3)nn2)nc1 [Example 35, 2-[[1-[4-Chloro-3-(difluoromethoxy)phenyl]triazol-4-yl]methoxy]-5-(difluoromethoxy)pyrimidine]	0.006	
CNc1ccnc(OCc2cn(-c3ccc(F)c(C(F)F)c3)nn2)n1 [Example 413, 2-[[1-[3-(Difluoromethyl)-4-fluoro-phenyl]triazol-4-yl]methoxy]-N-methyl-pyrimidin-4-amine]		0.015
Fc1cnc(OCc2cn(-c3cccc(F)c3)nn2)nc1 [Example 229, 5-Fluoro-2-[[1-(3-fluorophenyl)triazol-4-yl]methoxy]pyrimidine]	2.98	
Cc1nc(NCc2cn(-c3ccc(F)c(C(F)F)c3)nn2)ncc1Cl [Example 218, 5-Chloro-N-((1-(3-(difluoromethyl)-4-fluorophenyl)-1H-1,2,3-triazol-4-yl)methyl)-4-methylpyrimidin-2-amine]	0.011	
CC(F)(F)c1cc(-n2cc(COc3ncc(OC(F)F)cn3)nn2)ccc1Cl [Example 542, 2-[[1-[4-Chloro-3-(1,1-difluoroethyl)phenyl]triazol-4-yl]methoxy]-5-(difluoromethoxy)pyrimidine]		0.012
Cc1cnc(OCc2cn(-c3ccc(N4CCC4)c(C(F)F)c3)nn2)nc1 [Example 638, 2-((1-(4-(Azetidin-1-yl)-3-(difluoromethyl)phenyl)-1H-1,2,3-triazol-4-yl)methoxy)-5-methylpyrimidine]		0.511
Fc1ccc(-n2cc(COc3nccc(N4CCOCC4)n3)nn2)cc1OC(F)F [Example 170, 4-[2-[[1-[3-(Difluoromethoxy)-4-fluoro-phenyl]triazol-4-yl]methoxy]pyrimidin-4-yl]morpholine]	0.26	
Fc1ccc(-n2cc(COc3nccc(C(F)(F)F)n3)nn2)cc1C(F)F [Example 403, 2-[[1-[3-(Difluoromethyl)-4-fluoro-phenyl]triazol-4-yl]methoxy]-4-(trifluoromethyl)pyrimidine]		0.199
Fc1ccc(-n2cc(COc3ncc(Cl)cn3)nn2)cc1C(F)F [Example 49, 5-Chloro-2-[[1-[3-(difluoromethyl)-4-fluoro-phenyl]triazol-4-yl]methoxy]pyrimidine]	0.003	
COCc1ccnc(OCc2cn(-c3ccc4c(c3)CCC4)nn2)n1 [Example 368, 2-[(1-Indan-5-yltriazol-4-yl)methoxy]-4-(methoxymethyl)pyrimidine]	0.114	
CCc1cnc(OCc2cn(-c3cccc(F)c3)nn2)nc1 [Example 233, 5-Ethyl-2-[[1-(3-fluorophenyl)triazol-4-yl]methoxy]pyrimidine]	0.075	
FC(F)c1cc(-n2cc(COc3nccc(C4CC4)n3)nn2)ccc1Cl [Example 631, 2-[[1-[4-Chloro-3-(difluoromethyl)phenyl]triazol-4-yl]methoxy]-4-cyclopropyl-pyrimidine]		0.042
Cc1cccc(OCc2cn(-c3ccc(F)c(C(F)F)c3)nn2)n1 [Example 113, 2-[[1-[3-(Difluoromethyl)-4-fluoro-phenyl]triazol-4-yl]methoxy]-6-methyl-pyridine]	0.038	
Cn1ccc(NCc2cn(-c3ccc(F)c(C(F)F)c3)nn2)n1 [Example 100, N-[[1-[3-(Difluoromethyl)-4-fluoro-phenyl]triazol-4-yl]methyl]-1-methyl-pyrazol-3-amine]	0.894	
Cn1cc(NCc2cn(-c3ccc(F)c(OC(F)F)c3)nn2)cn1 [Example 102, N-[[1-[3-(Difluoromethoxy)-4-fluoro-phenyl]triazol-4-yl]methyl]-1-methyl-pyrazol-4-amine]	3.25	
Cc1cc(OCc2cn(-c3ccc(F)c(C)c3)nn2)ncn1 [Example 462, 4-[[1-(4-Fluoro-3-methyl-phenyl)triazol-4-yl]methoxy]-6-methyl-pyrimidine]		3.03
CC(C)(O)c1cnc(OCc2cn(-c3cccc(F)c3F)nn2)nc1 [Example 608, 2-[2-[[1-(2,3-Difluorophenyl)triazol-4-yl]methoxy]pyrimidin-5-yl]propan-2-ol]		> 10
FC(F)Oc1cc(-n2cc(COc3cccnn3)nn2)ccc1Cl [Example 14, 3-[[1-[4-Chloro-3-(difluoromethoxy)phenyl]triazol-4-yl]methoxy]pyridazine]	0.401	
